Laboratory results as given in patent US20040067531A1, “Methods of modulating protein tyrosine kinase function with substituted indolinone compounds” (SUGEN, INC., priority 1997, published 2004).

Experiments:
[1] = system: FGF-induced BrdU incorporation; test: FGF-induced BrdU incorporation assay; format: cell-based; conditions: read-out: FGF-Induced BrdU Incorp. IC50
Experimental: (§1) PDGF-, FGF-, and EGF-Induced BRDU Incorporation Assay
(§2) 1. Cells were seeded at 8000 cells/well in DMEM, 10% CS, 2 mM Gln in a 96 well plate. Cells were incubated overnight at 37° C. in 5% CO2.
(§3) 2. After 24 hours, the cells were washed with PBS, and then were serum starved in serum free medium (0% CS DMEM with 0.1% BSA) for 24 hours.
(§4) 3. On day 3, ligand (PDGF=3.8 nM, prepared in DMEM with 0.1% BSA) and test compounds were added to the cells simultaneously. The negative control wells received serum free DMEM with 0.1% BSA only; the positive control cells received the ligand (PDGF) but no test compound. Test compounds were prepared in serum free DMEM with ligand in a 96 well plate, and serially diluted for 7 test concentrations.
(§5) 4. After 20 hours of ligand activation, diluted BrdU labeling reagent (1:100 in DMEM, 0.1% BSA) was added and the cells were incubated with BrdU (final concentration=10 μM) for 1.5 hours.
(§6) 5. After incubation with labeling reagent, the medium was removed by decanting and tapping the inverted plate on a paper towel. FixDenat solution was added (50 μL/well) and the plates were incubated at room temperature for 45 minutes on a plate shaker.
(§7) 6. The FixDenat solution was thoroughly removed by decanting and tapping the inverted plate on a paper towel. Milk was added (5% dehydrated milk in PBS, 200 μL/well) as a blocking solution and the plate was incubated for 30 minutes at room temperature on a plate shaker.
(§8) 7. The blocking solution was removed by decanting and the wells were washed once with PBS. Anti-BrdU-POD solution (1:100 dilution in PBS, 1% BSA) was added (100 μL/well), and the plate was incubated for 90 minutes at room temperature on a plate shaker.
(§9) 8. The antibody conjugate was thoroughly removed by decanting and rinsing the wells 5 times with PBS, and the space was dried by inverting and tapping on a paper towel.
(§10) 9. TMB substrate solution was added (100 μL/well) and incubated for 20 minutes at room temperature on a plate shaker until color development was sufficient for photometric detection.
(§11) 10. The absorbance of the samples were measured at 410 nm (in “dual wavelength” mode with a filter reading at 490 nm, as a reference wavelength) on a Dynatech ELISA plate reader.
(§12) The IC50 values were measured for several of the compounds of the invention. These values are depicted in Table 10.

FLK-1 receptor = biological target: T1, FLK-1 receptor (Mus musculus, UniProt P35918); test: ELISA assay measuring the kinase activity of the FLK-1 receptor in cells engineered to express FLK-1; format: cell-based; conditions: NIH3T3 C7#3 FLK-1 expressing cells, VEGF stimulation, phosphotyrosine ELISA
T1 construct: expressed in transfected cells; host or cells: NIH3T3 C7#3
Experimental: An ELISA assay was conducted to measure the kinase activity of the FLK-1 receptor and more specifically, the inhibition or activation of TK activity on the FLK-1 receptor. Specifically, the following assay was conducted to measure kinase activity of the FLK-1 receptor in cells genetically engineered to express FLK-1.
(11) NIH3T3 C7#3 Cells (FLK-1 expressing cells);
The following protocol was used for conducting the assay:
1. Coat Corning 96-well elisa plates with 1.0 μg per well Cappel Anti-rabbit IgG antibody in 0.1 M Na2CO3 pH 9.6. Bring final volume to 150 μL per well. Coat plates overnight at 4° C. Plates can be kept up to two weeks when stored at 4° C.
2. Grow cells in Growth media (DMEM, supplemental with 2.0 mM L-Glutamine, 10% FBS) in suitable culture dishes until confluent at 37° C., 5% CO2.
3. Harvest cells by trypsinization and seed in Corning 25850 polystyrene 96-well roundbottom cell plates, 25.000 cells/well in 200 μL of growth media.
4. Grow cells at least one day at 37° C., 5% CO2.
5. Wash cells-with D-PBS 1×.
6. Add 200 μL/well of starvation media (DMEM, 2.0 mM 1-Glutamine, 0.1% FBS). Incubate overnight at 37° C., 5% CO2.
7. Dilute Compounds 1:20 in polypropylene 96 well plates using starvation media. Dilute dimethylsulfoxide 1:20 for use in control wells.
8. Remove starvation media from 96 well cell culture plates and add 162 μL of fresh starvation media to each well.
9. Add 18 μL of 1:20 diluted Compound dilution (from step 7) to each well plus the 1:20 dimethylsulfoxide dilution to the control wells (+/− VEGF), for a final dilution of 1:200 after cell stimulation. Final dimethylsulfoxide is 0.5%. Incubate the plate at 37° C., 5% CO2 for two hours.
10. Remove unbound antibody from ELISA plates by inverting plate to remove liquid. Wash 3 times with TBSW+0.5% ethanolamine, pH 7.0. Pat the plate on a paper towel to remove excess liquid and bubbles.
11. Block plates with TBSW+0.5% Ethanolamine, pH 7.0, 150 μL per well. Incubate plate thirty minutes while shaking on a microliter plate shaker.
12. Wash plate 3 times as described in step 10.
13. […] Bring final volume to 150 μL/well with TBSW+0.5% ethanolamine pH 7.0. Incubate plate for thirty minutes while shaking.
14. Add 180 μL starvation medium to the cells and stimulate cells with 20 μL/well 10.0 mM sodium ortho vanadate and 500 ng/mL VEGF (resulting in a final concentration of 1.0 mM sodium ortho vanadate and 50 ng/mL VEGF per well) for eight minutes at 37° C., 5% CO2. Negative control wells receive only starvation medium.
15. After eight minutes, media should be removed from the cells and washed one time with 200 μL/well PBS.
16. Lyse cells in 150 μL/well HNTG while shaking at room temperature for five minutes. HNTG formulation includes sodium ortho vanadate, sodium pyro phosphate and EDTA.
17. Wash ELISA plate three times as described in step 10.
18. Transfer cell lysates from the cell plate to ELISA plate and incubate while shaking for two hours. To transfer cell lysate pipette up and down while scrapping the wells.
19. Wash plate three times as described in step 10.
20. Incubate ELISA plate with 0.02 μg/well UB40 in TBSW+05% ethanolamine. Bring final volume to 150 μL/well. Incubate while shaking for 30 minutes.
21. Wash plate three times as described in step 10.
22. Incubate ELISA plate with 1:10,000 diluted EIA grade goat anti-mouse IgG conjugated horseradish peroxidase in TBSW+0.5% ethanolamine, pH 7.0. Bring final volume to 150 μL/well. Incubate while shaking for thirty minutes.
23. Wash plate as described in step 10.
24. Add 100 μL of ABTS/H2O2 solution to well. Incubate ten minutes while shaking.
25. Add 100 μL of 0.2 M HCl for 0.1 M HCl final to stop the color development reaction. Shake 1 minute at room temperature. Remove bubbles with slow stream of air and read the ELISA plate in an ELISA plate reader at 410 nm.
(§13) The IC50 values were measured for several of the compounds of the invention.

[2] = system: 3T3 cell line genetically engineered to express human PDGF-R; test: PDGF-induced BrdU incorporation assay; format: cell-based; conditions: NIH3T3; 3T3 cells expressing human PDGF-R, PDGF 3.8 nM; read-out: PDGF-Induced BrdU Incorp. IC50
Experimental: (1) PDGF: human PDGF B/B; 1276-956, Boehringer Mannheim, Germany
(8) 3T3 cell line genetically engineered to express human PDGF-R.
as §2, §3, §4, §5, §6, §7, §8, §9, §10, §11, §12

[3] = system: EGF-induced BrdU incorporation; test: EGF-induced BrdU incorporation assay; format: cell-based; conditions: read-out: EGF-Induced BrdU Incorp. IC50
Experimental: as §1, §2, §3, §4, §5, §6, §7, §8, §9, §10, §11, §12

[4] = biological target: Myc-GyrB-FGFR fusion protein (Homo sapiens, UniProt P11362); test: ELISA assay measuring the kinase activity of the FGF receptor (Myc-GyrB-FGFR from COS/FGFR cell lysate); format: biochemical; conditions: 7 μM ATP
Experimental: The following protocol describes the reagents and procedures used to analyze protein-tyrosine kinase activity of the Myc-GyrB-FGFR fusion protein.
Coat Corning 96 well ELISA plates with 1.0 μg/well of Rabbit αGyrB antibody in PBS for a total well volume of 100 μL. Store overnight at 4° C.
Remove unbound Rabbit antibody by inverting plate to remove liquid. Pat plate on a paper towel to remove excess liquid and bubbles
Add 100 μL of Blocking Buffer (TBB) to each well. Incubate while shaking on a microliter plate shaker at room temperature for 30 min.
Wash 4× with TBST. Pat plate on a paper towel to remove excess liquid and bubbles.
Add 15 μg COS/FGFR cell lysate Myc-GyrB-FGFR sources per well in HNTG for a final volume of 100 μL per well. Incubate while shaking on a micro-liter plate shaker at room temperature for 2 hours.
Wash 4× with TBST as described in step 4.
Add 80 μL of 1× kinase buffer per well.
Dilute compunds/extracts 1:10 (or as stated otherwise) in 1× kinase buffer +1% DMSO in a polypropylene 96 well plate.
At this point diluted Compounds/Extracts are added to the ELISA plate. […]

EGFR protein = biological target: T2, EGFR protein (Homo sapiens, UniProt P00533); test: ELISA assay measuring the kinase activity of the EGF receptor (EGFR captured from A431 cell lysate); format: biochemical
T2 construct: A431 cell lysate; endogenous in cells; host or cells: A431
Experimental: The following protocol describes the reagents and procedures used to analyze protein tyrosine kinase activity on the EGFR protein.
All of the following steps are conducted at room temperature unless it is specifically indicated. All ELISA plate washing is by rinsing 4× with TBST.
1. Coat Corning 96 well ELISA plates with 0.5 μg/well of SUMO1 in a volume of 100 μL PBS. Store overnight at 4° C.
2. Remove unbound SUMO1 by inverting plate to remove liquid. Wash plates with distilled water. Pat plate on a paper towel to remove excess liquid and bubbles
3. Add 150 μL of Blocking Buffer to each well. Incubate while shaking on a microliter plate shaker at room temperature for 30 min.
4. Wash 3× with deionized water, then once with TBST. Pat plate on a paper towel to remove excess liquid and bubbles.
5. Dilute lysate in PBS (7 μg of lysate/100 μL of PBS).
6. Add 100 μL of diluted lysate to each well. Shake at room temperature for 60 min.
7. Wash as described in step 4.
8. Add 120 μL TBS to ELISA plate containing captured EGFR.
9. Dilute drugs/extracts 1:10 (unless specified otherwise) in TBS in 96-well polypropylene plates.
10. Add 13.5 μL diluted drugs/extracts to ELISA plate.
11. Incubate for 30 minutes while shaking at room temperture.
12. […] Incubate while shaking on a micro-liter plate shaker at room temperature for 5 min.
13. Stop Kinase reaction with the addition of 16.5 μL of 200 mM EDTA pH 8.0 to all wells.
14. Wash 4× with deionized water and twice with TBST.
15. Add 100 μL per well of anti-phosphotyrosine (1:3000 dilution in TBST). Incubate while shaking on a micro-liter plate shaker 30-45 minutes at room temperature while shaking.
16. Wash as described in step 4.
17. Add 100 μL per well of biosource Goat anti-rabbit IgG peroxidase conjugate (1:2000 dilution in TBST). Incubate 30 min. at room temerature while shaking.
18. Wash as described in step 4.
19. Add 100 μL of ABTS/H2O2 solution to each well.
20. Incubate 5 to 15 minutes while shaking. Remove any bubbles.
21. If necessary stop reaction with the addition of 10 μL of 0.2 M HCl/well.
22. Read assay on Dynatech MR7000 ELISA Plate Reader.
as §13

T1 sequence (P35918 20-1345): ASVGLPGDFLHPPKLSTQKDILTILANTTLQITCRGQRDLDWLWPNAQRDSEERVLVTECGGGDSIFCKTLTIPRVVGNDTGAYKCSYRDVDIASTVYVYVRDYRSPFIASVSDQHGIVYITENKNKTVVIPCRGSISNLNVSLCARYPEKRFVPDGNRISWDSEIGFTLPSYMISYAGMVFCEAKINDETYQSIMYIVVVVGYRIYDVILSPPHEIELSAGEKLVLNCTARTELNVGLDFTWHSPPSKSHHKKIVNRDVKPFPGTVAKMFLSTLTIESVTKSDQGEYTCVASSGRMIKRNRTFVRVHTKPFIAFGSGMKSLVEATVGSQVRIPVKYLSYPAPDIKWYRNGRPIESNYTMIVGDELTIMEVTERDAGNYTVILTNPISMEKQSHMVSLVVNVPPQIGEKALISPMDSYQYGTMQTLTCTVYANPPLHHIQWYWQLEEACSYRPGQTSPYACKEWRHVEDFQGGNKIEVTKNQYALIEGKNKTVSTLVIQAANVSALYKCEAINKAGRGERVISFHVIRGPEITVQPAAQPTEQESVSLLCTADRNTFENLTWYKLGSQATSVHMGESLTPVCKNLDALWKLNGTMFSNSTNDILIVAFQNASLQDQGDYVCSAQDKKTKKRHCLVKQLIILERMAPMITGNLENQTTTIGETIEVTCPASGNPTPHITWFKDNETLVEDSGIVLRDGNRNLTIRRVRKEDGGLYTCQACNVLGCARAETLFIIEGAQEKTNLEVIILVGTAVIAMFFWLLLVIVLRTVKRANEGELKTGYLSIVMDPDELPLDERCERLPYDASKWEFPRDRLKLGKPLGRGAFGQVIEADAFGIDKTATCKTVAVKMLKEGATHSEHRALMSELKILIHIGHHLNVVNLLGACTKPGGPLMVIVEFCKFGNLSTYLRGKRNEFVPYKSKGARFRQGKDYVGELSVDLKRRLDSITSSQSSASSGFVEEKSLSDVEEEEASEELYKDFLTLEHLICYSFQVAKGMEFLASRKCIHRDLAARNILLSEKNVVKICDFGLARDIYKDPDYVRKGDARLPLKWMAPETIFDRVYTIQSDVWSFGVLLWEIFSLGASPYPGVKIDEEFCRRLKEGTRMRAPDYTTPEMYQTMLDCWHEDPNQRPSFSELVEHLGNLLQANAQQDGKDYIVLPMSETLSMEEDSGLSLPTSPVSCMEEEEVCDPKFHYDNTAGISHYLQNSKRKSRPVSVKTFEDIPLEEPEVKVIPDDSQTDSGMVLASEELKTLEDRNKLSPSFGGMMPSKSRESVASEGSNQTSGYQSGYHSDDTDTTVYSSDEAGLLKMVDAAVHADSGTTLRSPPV
T2 sequence (P00533 25-1210): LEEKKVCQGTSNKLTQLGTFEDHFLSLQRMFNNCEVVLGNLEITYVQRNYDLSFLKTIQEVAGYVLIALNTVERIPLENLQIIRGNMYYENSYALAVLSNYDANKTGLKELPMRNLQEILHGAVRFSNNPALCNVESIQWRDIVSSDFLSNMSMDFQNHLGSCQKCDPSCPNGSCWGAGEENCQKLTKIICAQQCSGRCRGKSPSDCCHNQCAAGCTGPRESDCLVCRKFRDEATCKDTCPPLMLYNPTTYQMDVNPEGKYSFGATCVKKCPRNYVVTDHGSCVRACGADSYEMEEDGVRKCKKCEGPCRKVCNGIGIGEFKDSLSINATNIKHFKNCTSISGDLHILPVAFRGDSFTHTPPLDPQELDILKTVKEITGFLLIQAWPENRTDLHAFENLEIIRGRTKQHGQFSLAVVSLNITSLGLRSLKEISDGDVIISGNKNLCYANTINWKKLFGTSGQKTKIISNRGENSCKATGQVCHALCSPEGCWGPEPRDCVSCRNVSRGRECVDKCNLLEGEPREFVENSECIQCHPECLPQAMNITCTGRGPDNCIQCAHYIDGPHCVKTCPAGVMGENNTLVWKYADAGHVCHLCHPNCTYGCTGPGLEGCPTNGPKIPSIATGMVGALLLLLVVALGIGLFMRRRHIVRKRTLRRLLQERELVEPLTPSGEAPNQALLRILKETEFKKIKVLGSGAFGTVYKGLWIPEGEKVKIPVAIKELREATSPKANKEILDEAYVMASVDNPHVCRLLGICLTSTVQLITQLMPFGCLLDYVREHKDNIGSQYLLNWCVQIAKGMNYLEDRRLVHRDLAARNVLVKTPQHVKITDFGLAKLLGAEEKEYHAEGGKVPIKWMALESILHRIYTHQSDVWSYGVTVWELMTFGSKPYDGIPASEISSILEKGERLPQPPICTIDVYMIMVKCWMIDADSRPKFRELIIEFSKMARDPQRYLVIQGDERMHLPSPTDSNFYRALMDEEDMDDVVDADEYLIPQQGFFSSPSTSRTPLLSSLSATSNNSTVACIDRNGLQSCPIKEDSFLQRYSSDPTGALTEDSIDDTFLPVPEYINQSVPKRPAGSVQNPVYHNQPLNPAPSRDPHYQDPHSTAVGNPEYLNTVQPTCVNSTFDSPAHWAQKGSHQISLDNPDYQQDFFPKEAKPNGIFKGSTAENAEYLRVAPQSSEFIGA
Myc-GyrB-FGFR fusion protein, sequence (P11362 398-822): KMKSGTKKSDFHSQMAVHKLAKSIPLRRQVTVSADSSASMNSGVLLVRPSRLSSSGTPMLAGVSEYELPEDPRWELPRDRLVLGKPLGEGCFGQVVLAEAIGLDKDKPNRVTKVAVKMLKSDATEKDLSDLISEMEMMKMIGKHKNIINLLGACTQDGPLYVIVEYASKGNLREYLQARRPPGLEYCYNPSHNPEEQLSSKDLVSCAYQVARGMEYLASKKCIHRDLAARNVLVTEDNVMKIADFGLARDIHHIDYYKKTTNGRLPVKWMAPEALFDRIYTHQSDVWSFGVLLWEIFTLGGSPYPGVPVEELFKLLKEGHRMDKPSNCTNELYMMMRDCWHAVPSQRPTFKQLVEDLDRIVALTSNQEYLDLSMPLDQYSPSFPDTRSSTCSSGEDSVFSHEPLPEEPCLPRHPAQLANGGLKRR

| Compound | IC50 [1] | IC50 (FLK-1 receptor) | IC50 [2] | IC50 [3] | further results |
| --- | --- | --- | --- | --- | --- |
| O=C(O)CCc1c(C=C2C(=O)Nc3cc(Cl)ccc32)[nH]c2c1CCCC2 [IN-006, 3-[2-(6-Chloro-2-oxo-1,2-dihydro-indol-3-ylidenemethyl)-4,5,6,7-tetrahydro-1H-indol-3-yl]-propionic acid] | 30.2 µM | 31 nM | 3.7 µM | 63.6 µM | – |
| O=C(O)CCc1c(/C=C2\C(=O)Nc3ncccc32)[nH]c2c1CCCC2 [IN-014, 3-[2-(2-Oxo-1,2-dihydro-pyrrolo[2,3-b]pyridin-3-ylidenemethyl)-4,5,6,7-tetrahydro-1H-indol-3-yl]-propionic acid] | – | 140 nM | – | – | – |
| COc1cccc(-c2ccc3c(c2)NC(=O)C3=Cc2[nH]c3c(c2CCC(=O)O)CCCC3)c1 [IN-015, 3-{2-[6-(3-Methoxy-phenyl)-2-oxo-1,2-dihydro-indol-3-ylidenemethyl]-4,5,6,7-tetrahydro-1H-indol-3-yl}-propionic acid] | – | < 780 nM | – | – | – |
| O=C(O)CCc1c(C=C2C(=O)Nc3cc(-c4ccccc4)ccc32)[nH]c2c1CCCC2 [IN-017, 3-[2-(2-Oxo-6-phenyl-1,2-dihydro-indol-3-ylidenemethyl)-4,5,6,7-tetrahydro-1H-indol-3-yl]-propionic acid] | – | < 780 nM | – | – | – |
| COc1ccccc1-c1ccc2c(c1)NC(=O)C2=Cc1[nH]c2c(c1CCC(=O)O)CCCC2 [IN-018, 3-{2-[6-(2-Methoxy-phenyl)-2-oxo-1,2-dihydro-indol-3-ylidenemethyl]-4,5,6,7-tetrahydro-1H-indol-3-yl}-propionic acid] | – | 2700 nM | – | – | – |
| CC(C)NS(=O)(=O)c1ccc2c(c1)C(=Cc1[nH]c3c(c1CCC(=O)O)CCCC3)C(=O)N2 [IN-019, 3-[2-(5-Isopropylaminosulfonyl-2-oxo-1,2-dihydro-indol-3-ylidenemethyl)-4,5,6 7-tetrahydro-1H-indol-3-yl]-propionic acid] | – | < 780 nM | – | – | – |
| O=C(O)CCc1ccccc1/C=C1/C(=O)Nc2ccccc21 [IN-025, 3-[2-(2-Oxo-1,2-dihydro-indol-3-ylidenemethyl)-phenyl]-propionic acid] | – | – | – | – | IC50 [4]: 30.2 µM |
| Cc1ccc2c(c1)C(=Cc1[nH]cc(C)c1CCC(=O)O)C(=O)N2 [IN-032, 3-[2-(5-Methyl-2-oxo-1,2-dihydro-indol-3-ylidenemethyl)-4-methyl-1H-pyrrol-3-yl]-propionic acid] | 30 µM | – | 11 µM | > 50 µM | – |
| COc1ccc2c(c1)C(=Cc1[nH]cc(C)c1CCC(=O)O)C(=O)N2 [IN-033, 3-[2-(5-Methoxy-2-oxo-1,2-dihydro-indol-3-ylidenemethyl)-4-methyl-1H-pyrrol-3-yl]-propionic acid] | 35 µM | – | > 50 µM | > 50 µM | IC50 (EGFR protein): > 100 µM |
